{"source": "patent US20030088312A1", "about": "“Use of cladribine on a stent to prevent restenosis” (priority 2000, published 2003)", "system": "human smooth muscle cells", "experiment": "Inhibition of PDGF-stimulated human smooth muscle cell proliferation (cell count, day 6)", "assay_type": "cell-based", "settings": "ratio of IC50 values, SMC vs EC", "method": "To assess the ability of cladribine to prevent cell proliferation, human smooth muscle or endothelial cells (Clonetics, Walkersville, Md.) were seeded at a density of 2000 cells/cm^2 (approximately […] cells/well) into each well of 12-well plates and cultured with 1.5 ml of growth medium containing 5% fetal calf serum (FCS). After 24 hours, the growth medium was changed and fresh medium containing 10 ng/ml platelet-derived growth factor AB (PDGF AB; LIFE Technologies), as well as various concentrations of cladribine (0.001-10,000 nM) were added with triplicate wells. Medium was replaced with fresh cladribine-containing medium after 3 days. On day six, cells were detached by trypsinization to yield a cell suspension, lightly centrifuged to pellet and then counted manually using a Neubauer hemacytometer system. Clee viability was assessed by trypan blue exclusion.\nTable 1 provides the percent inhibition of the various tested concentrations of cladribine on human smooth muscle and endothelial cells in culture. Cladribine produced a concentration-related decrease in the proliferation of both smooth muscle and endothelial cells in this model system. […]"}
{"smiles": "Nc1nc(Cl)nc2c1ncn2[C@H]1C[C@H](O)[C@@H](CO)O1", "note": "[Cladribine]", "values": [{"measurement": "potency as inhibitor of smooth muscle cells relative to endothelial cells", "result": "approximately twice as potent"}]}
